Assay results as given in ChEMBL document CHEMBL1153384, “Synthesis, antimalarial activity, and preclinical pharmacology of a novel series of 4'-fluoro and 4'-chloro analogues of amodiaquine. Identification of a suitable "back-up" compound for N-tert-butyl isoquine” (J Med Chem, 2009).

Key:
[1] = target: β-hematin formation (no protein target); test: Inhibition of beta-hematin formation as molar equivalent relative to hemin causing blockade in BHIA
[2] = tested on: Plasmodium falciparum; test: Antimalarial activity against chloroquine-sensitive Plasmodium falciparum 3D7; type: functional, organism-based
[3] = tested on: Plasmodium falciparum; test: Antimalarial activity against chloroquine-sensitive Plasmodium falciparum HB3; type: functional, organism-based
[4] = tested on: Plasmodium falciparum; test: Antimalarial activity against chloroquine-resistant Plasmodium falciparum TM6; type: functional, organism-based
[5] = tested on: Kidney; test: Biodistribution in cannulated Wistar rat kidney assessed as [3H]labeled drug level at 54 umol/kg, iv after 5 hrs; type: ADME, organism-based; conditions: in vivo
[6] = tested on: Rattus norvegicus; test: Metabolic stability in Wistar rat assessed as [3-(tert-Butylamino-methyl)-4-chloro-phenyl]-(7-chloro-1-oxy-quinolin-4-yl)-amine level at 54 umol/kg, iv administered as [3H]labeled drug after 5 hrs; type: ADME, organism-based; conditions: in vivo
[7] = tested on: Plasmodium berghei; test: Antimalarial activity as reduced parasitaemia against Plasmodium berghei ANKA infected CD1 mice (Mus musculus) perorally dosed daily over 4 days; type: functional; conditions: po, 96 h
[8] = Toxicity against Wistar rat hepatocytes after 6 hrs by trypan blue exclusion method; type: cell-based, Hepatocyte; conditions: read-out: TC50
[9] = tested on: Liver; test: Biodistribution in Wistar rat liver assessed as [3H]labeled drug level at 54 umol/kg, iv after 24 hrs; type: ADME, organism-based; conditions: in vivo
[10] = (§1) Partition coefficient, log P of the compound; type: physicochemical; conditions: octanol/water
[11] = tested on: Liver; test: Biodistribution in cannulated Wistar rat liver assessed as [3H]labeled drug level at 54 umol/kg, iv after 5 hrs; type: ADME, organism-based; conditions: in vivo
[12] = tested on: Rattus norvegicus; test: Drug elimination in Wistar rat assessed as [3H]labeled drug level at 54 umol/kg, iv after 24 hrs; type: ADME, organism-based; conditions: in vivo
[13] = Distribution coefficient, log D at pH 7.4; conditions: octanol/water
[14] = tested on: Rattus norvegicus; test: Metabolic stability in Wistar rat assessed as 2-Chloro-5-(7-chloro-quinolin-4-ylamino)-benzoic acid level at 54 umol/kg, iv administered as [3H]labeled drug after 5 hrs; type: ADME, organism-based; conditions: in vivo
[15] = Drug metabolism in cannulated Wistar rat assessed as biliary excretion of [3H]labeled drug level at 54 umol/kg, iv after 5 hrs; type: ADME, organism-based, Bile; conditions: in vivo
[16] = tested on: Rattus norvegicus; test: Metabolic stability in Wistar rat assessed as 2-[2-Chloro-5-(7-chloro-quinolin-4-ylamino)-benzylamino]-2-methyl-propionic acid level at 54 umol/kg, iv administered as [3H]labeled drug after 5 hrs; type: ADME, organism-based; conditions: in vivo
[17] = tested on: Kidney; test: Biodistribution in Wistar rat kidney assessed as [3H]labeled drug level at 54 umol/kg, iv after 24 hrs; type: ADME, organism-based; conditions: in vivo
[18] = Therapeutic index, ratio of IC50 for Wistar rat hepatocytes to IC50 for Plasmodium falciparum HB3; type: cell-based, Hepatocyte
[19] = Biodistribution in cannulated Wistar rat bile assessed as [3H]labeled drug level at 54 umol/kg, iv after 5 hrs; type: ADME, organism-based; conditions: in vivo
[20] = tested on: Lung; test: Biodistribution in Wistar rat lung assessed as [3H]labeled drug level at 54 umol/kg, iv after 24 hrs; type: ADME, organism-based; conditions: in vivo
[21] = target: Cytochrome P450 2C9 (Homo sapiens, UniProt P11712); test: Inhibition of human CYP2C9; type: ADME
Cytochrome P450 2C9, sequence (P11712 whole entry): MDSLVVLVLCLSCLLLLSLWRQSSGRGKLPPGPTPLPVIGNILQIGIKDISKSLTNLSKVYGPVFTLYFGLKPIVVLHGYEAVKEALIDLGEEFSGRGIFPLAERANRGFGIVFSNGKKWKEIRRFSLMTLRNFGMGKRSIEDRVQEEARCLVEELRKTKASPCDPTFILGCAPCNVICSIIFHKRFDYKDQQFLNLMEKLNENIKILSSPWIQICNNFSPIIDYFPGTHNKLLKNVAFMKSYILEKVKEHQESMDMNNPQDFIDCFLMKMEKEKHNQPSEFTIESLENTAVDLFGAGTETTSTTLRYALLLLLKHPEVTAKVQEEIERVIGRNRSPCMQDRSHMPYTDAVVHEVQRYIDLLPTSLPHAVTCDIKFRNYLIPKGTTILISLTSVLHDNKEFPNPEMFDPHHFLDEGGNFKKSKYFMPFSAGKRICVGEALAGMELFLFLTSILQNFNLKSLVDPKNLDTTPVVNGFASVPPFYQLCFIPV

[22] = tested on: Plasmodium yoelii; test: In vivo antimalarial activity against Plasmodium yoelii NS peroral dosage; type: functional; conditions: po
[23] = Oral bioavailability in mouse; type: ADME, organism-based; conditions: in vivo
[24] = target: T1, Cytochrome P450 3A4 (Homo sapiens, UniProt P08684); test: Inhibition of human CYP3A4 using DEF substrate
T1 sequence (P08684 whole entry): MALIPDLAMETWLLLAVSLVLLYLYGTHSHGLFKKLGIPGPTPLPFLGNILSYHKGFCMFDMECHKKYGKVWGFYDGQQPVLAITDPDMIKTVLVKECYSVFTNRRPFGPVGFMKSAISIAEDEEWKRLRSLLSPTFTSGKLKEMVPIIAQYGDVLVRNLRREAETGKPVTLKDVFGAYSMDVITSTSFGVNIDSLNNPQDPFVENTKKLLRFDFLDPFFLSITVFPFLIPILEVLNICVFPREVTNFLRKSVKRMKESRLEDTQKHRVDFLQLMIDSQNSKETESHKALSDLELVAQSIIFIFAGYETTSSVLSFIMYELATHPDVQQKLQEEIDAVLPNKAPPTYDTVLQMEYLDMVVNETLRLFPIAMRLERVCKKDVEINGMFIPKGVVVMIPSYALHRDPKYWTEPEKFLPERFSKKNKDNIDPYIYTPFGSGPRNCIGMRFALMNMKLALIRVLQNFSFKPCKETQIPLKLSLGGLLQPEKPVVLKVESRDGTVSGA

[25] = target: Cytochrome P450 2D6 (Homo sapiens, UniProt P10635); test: Inhibition of human CYP2D6; type: ADME
Cytochrome P450 2D6, sequence (P10635 whole entry): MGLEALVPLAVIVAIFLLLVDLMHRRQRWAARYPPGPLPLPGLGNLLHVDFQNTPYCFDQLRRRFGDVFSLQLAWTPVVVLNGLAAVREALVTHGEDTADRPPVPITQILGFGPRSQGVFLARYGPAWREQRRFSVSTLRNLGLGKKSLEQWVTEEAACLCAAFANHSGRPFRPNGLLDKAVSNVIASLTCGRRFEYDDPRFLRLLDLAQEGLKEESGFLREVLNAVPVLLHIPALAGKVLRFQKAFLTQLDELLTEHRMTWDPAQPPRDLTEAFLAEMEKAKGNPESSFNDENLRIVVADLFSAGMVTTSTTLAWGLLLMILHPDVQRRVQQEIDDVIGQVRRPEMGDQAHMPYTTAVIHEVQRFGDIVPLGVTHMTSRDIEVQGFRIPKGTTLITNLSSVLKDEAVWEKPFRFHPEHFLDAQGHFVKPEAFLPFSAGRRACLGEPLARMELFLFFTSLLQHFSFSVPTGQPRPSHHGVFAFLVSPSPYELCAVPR

[26] = Oral bioavailability in rat; type: ADME, organism-based; conditions: in vivo
[27] = target: Cytochrome P450 2C19 (Homo sapiens, UniProt P33261); test: Inhibition of human CYP2C19; type: ADME
Cytochrome P450 2C19, sequence (P33261 whole entry): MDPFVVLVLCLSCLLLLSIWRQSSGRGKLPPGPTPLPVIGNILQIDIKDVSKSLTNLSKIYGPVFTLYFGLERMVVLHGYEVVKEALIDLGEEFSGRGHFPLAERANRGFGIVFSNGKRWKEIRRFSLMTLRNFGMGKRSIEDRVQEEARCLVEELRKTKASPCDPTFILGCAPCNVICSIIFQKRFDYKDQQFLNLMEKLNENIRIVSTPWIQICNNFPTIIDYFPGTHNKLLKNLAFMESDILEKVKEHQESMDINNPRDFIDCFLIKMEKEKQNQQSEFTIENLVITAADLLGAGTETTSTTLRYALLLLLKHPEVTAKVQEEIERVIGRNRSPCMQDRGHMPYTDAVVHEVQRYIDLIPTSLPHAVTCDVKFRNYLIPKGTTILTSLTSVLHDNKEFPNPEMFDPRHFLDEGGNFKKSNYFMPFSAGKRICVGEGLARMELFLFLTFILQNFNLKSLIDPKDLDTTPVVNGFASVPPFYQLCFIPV

[28] = target: T2, Cytochrome P450 1A2 (Homo sapiens, UniProt P05177); test: Inhibition of human CYP1A2; type: ADME
T2 sequence (P05177 whole entry): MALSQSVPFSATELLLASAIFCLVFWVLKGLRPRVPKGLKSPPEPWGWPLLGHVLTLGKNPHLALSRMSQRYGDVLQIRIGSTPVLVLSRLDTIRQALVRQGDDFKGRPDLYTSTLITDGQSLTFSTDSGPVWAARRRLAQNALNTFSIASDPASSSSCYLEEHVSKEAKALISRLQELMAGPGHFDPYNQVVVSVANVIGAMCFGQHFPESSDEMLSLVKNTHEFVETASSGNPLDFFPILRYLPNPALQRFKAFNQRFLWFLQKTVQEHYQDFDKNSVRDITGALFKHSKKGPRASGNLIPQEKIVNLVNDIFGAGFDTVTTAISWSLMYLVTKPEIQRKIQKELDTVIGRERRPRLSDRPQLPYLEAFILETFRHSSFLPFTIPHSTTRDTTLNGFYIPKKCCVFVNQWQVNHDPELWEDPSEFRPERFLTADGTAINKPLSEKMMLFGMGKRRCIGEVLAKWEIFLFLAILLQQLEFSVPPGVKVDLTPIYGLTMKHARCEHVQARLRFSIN

[29] = tested on: Plasmodium yoelii; test: Antimalarial activity as reduced parasitaemia against Plasmodium yoelii 17X infected CD1 mice (Mus musculus) perorally dosed daily for 4 days; type: functional; conditions: po, 96 h
[30] = target: T3, Cytochrome P450 2C8 (Homo sapiens, UniProt P10632); test: Inhibition of human CYP2C8; type: ADME
T3 sequence (P10632 whole entry): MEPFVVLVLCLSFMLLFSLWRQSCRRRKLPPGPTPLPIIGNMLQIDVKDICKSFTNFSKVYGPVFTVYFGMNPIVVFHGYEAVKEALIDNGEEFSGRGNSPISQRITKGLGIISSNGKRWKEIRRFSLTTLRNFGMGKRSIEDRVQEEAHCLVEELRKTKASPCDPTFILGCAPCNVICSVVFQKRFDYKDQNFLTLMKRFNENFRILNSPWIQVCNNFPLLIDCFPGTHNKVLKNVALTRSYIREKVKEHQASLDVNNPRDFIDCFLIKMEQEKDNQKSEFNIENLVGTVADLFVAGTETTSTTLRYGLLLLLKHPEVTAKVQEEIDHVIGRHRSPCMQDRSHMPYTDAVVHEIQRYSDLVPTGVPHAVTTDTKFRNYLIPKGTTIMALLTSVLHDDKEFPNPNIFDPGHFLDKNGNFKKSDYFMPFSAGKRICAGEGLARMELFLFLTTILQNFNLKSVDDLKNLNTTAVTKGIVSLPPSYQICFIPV

[31] = Clearance in iv dosed rat; type: ADME, organism-based; conditions: in vivo
[32] = target: T1, Cytochrome P450 3A4; test: Inhibition of human CYP3A4 using PPR substrate; type: ADME
[33] = tested on: Plasmodium yoelii; test: Antimalarial activity as minimal concentration for parasite elimination at day 23 against Plasmodium yoelii 17X intravenously inoculated CD1 mice (Mus musculus) dosed 1 hrs post infection then daily for 4 days
[34] = Clearance in iv dosed mouse; type: ADME, organism-based; conditions: in vivo
[35] = tested on: Plasmodium falciparum; test: Antimalarial activity against chloroquine-resistant Plasmodium falciparum J164; type: functional, organism-based
[36] = as §1; type: physicochemical; conditions: octanol/water; remark: listed apart in the source
[37] = tested on: Mus musculus; test: Toxicity in po dosed mouse assessed as maximal nonlethal dose administered as single dose; type: organism-based; conditions: in vivo
[38] = tested on: Heme; test: Binding affinity to heme assessed as binding constant for stepwise binding of 2 molecules of heme to 1 equivalent of drug in presence of 40% DMSO by UV-visible spectroscopy
[39] = Toxicity in po dosed mouse assessed as drug level causing no observed adverse effects administered as once daily for 4 days; type: organism-based; conditions: in vivo, read-out: Activity
[40] = target: T1, Cytochrome P450 3A4; test: Inhibition of human CYP3A4 using DEF substrate; type: ADME
[41] = tested on: Mus musculus; test: Toxicity in po dosed mouse assessed as induction of hepatotoxicity at drug dose above no observed adverse effects level; type: organism-based; conditions: in vivo
[42] = tested on: Plasmodium falciparum; test: Antimalarial activity against chloroquine-resistant Plasmodium falciparum V1/S; type: functional, organism-based; conditions: V1S
[43] = Toxicity in po dosed mouse assessed as drug level causing no observed adverse effects administered as single dose; type: organism-based; conditions: in vivo, read-out: Activity
[44] = tested on: Mus musculus; test: Toxicity in po dosed mouse assessed as induction of hematological toxicity at drug dose above no observed adverse effects level; type: organism-based; conditions: in vivo
[45] = tested on: Heme; test: Binding affinity to heme assessed as binding constant for stepwise binding of 2 equivalent of drug to 1 molecule of heme in presence of 40% DMSO by UV-visible spectroscopy
[46] = tested on: Plasmodium falciparum; test: Antimalarial activity against […] Plasmodium falciparum Dd2; type: functional, organism-based
[47] = tested on: Plasmodium falciparum; test: Antimalarial activity against chloroquine-resistant Plasmodium falciparum TM4; type: functional, organism-based
[48] = tested on: Plasmodium falciparum; test: Antimalarial activity against chloroquine-resistant Plasmodium falciparum K1
[49] = tested on: Plasmodium falciparum; test: Antimalarial activity against […] Plasmodium falciparum PH3; type: functional, organism-based

Clc1ccc2c(Nc3cccc(Cn4ccnc4)c3)ccnc2c1
IC50 [1]: 2.65 molar ratio

Fc1ccc(Nc2ccnc3cc(Cl)ccc23)cc1CN1CCCCC1
IC50 [2]: 33.2 nM

Fc1ccc(Nc2ccnc3cc(Cl)ccc23)cc1CN1CCOCC1
IC50 [2]: 551 nM

Clc1ccc2c(Nc3ccc(Cl)c(CN4CCCCC4)c3)ccnc2c1
IC50 [2]: 25.7 nM | IC50 [3]: 12.3 nM | IC50 [4]: 9.4 nM

CCN(CC)Cc1cc(Nc2ccnc3cc(Cl)ccc23)ccc1Cl
IC50 [2]: 30.4 nM | IC50 [3]: 12.3 nM | IC50 [4]: 10.2 nM

CC(C)(C)NCc1cc(Nc2ccnc3cc(Cl)ccc23)ccc1Cl
Drug uptake [5]: 5.43 %ID | Activity [6]: 4.52% | ED50 [7]: 13.4 mg/kg | ED90 [7]: 27.3 mg/kg | CC50 at 6 h [8]: 120000 nM | Drug uptake [9]: 1.87 %ID | logP [10]: 5.59 | Drug uptake [11]: 12.41% | Activity [12]: 61% | logD [13]: 3 | Activity [14]: 11.39% | IC50 [1]: 1.66 molar ratio | IC50 [2]: 7.8 nM | Activity [15]: 14.88% | IC50 [3]: 8.1 nM | Activity [16]: 60.76% | IC50 [4]: 4.5 nM | Drug uptake [17]: 0.31 %ID | selectivity ratio [18]: 11900 | Activity [19]: 14.9% | Drug uptake [20]: 0.25 %ID

CN1CCN(Cc2cc(Nc3ccnc4cc(Cl)ccc34)ccc2Cl)CC1
IC50 [2]: 86.8 nM | IC50 [3]: 54.5 nM | IC50 [4]: 24.4 nM

CCN(CC)Cc1ccc(Nc2ccnc3cc(Cl)ccc23)cc1O [ISOQUINE]
IC50 [21]: 75000 nM | ED50 [22]: 1.6 mg/kg | bioavailability [23]: 21% | IC50 [24]: > 100000 nM | IC50 [25]: 7000 nM | bioavailability [26]: 17% | IC50 [27]: 39000 nM | IC50 [28]: 23000 nM | ED50 [29]: 5.2 mg/kg | ED90 [29]: 7.6 mg/kg | IC50 [30]: 13000 nM | IC50 [2]: 7.8 nM | clearance [31]: 89.2 mL/min/kg | IC50 [32]: Active | Activity [33]: >40 mg/kg | clearance [34]: 219 mL/min/kg

CC(C)(C)NCc1cccc(Nc2ccnc3cc(Cl)ccc23)c1
IC50 [1]: 1.65 molar ratio

CCCN(CCC)Cc1cc(Nc2ccnc3cc(Cl)ccc23)ccc1Cl
IC50 [2]: 277 nM

O=C(NCc1cc([N+](=O)[O-])ccc1F)c1ncc[nH]1
IC50 [3]: 10.1 nM | IC50 [4]: 5 nM

CCN(CC)Cc1cc(Nc2ccnc3cc(Cl)ccc23)ccc1O.Cl
IC50 [35]: 18.5 nM | logP [36]: 4.37 | Activity [37]: > 500 mg/kg | CC50 at 6 h [8]: 78000 nM | ED50 [22]: 7.4 mg/kg | logD [13]: 3.08 | log Ks [38]: 6.2 | NOAEL at 96 h [39]: 100 mg/kg | IC50 [40]: 28000 nM | IC50 [3]: 5.5 nM | IC50 ([32]; read-out: IC50): > 100000 nM | Activity [41]: Toxic | IC50 [42]: 8.9 nM | NOAEL [43]: 100 mg/kg | Activity [44]: Toxic | IC50 [4]: 7.2 nM | log Ks [45]: 4.4

Clc1ccc2c(Nc3ccc(Cl)c(CN4CCCC4)c3)ccnc2c1
IC50 [3]: 15.2 nM | IC50 [4]: 4.2 nM

Fc1ccc(Nc2ccnc3cc(Cl)ccc23)cc1CN1CCCC1
IC50 [35]: 34.7 nM | IC50 [46]: 36.9 nM | IC50 [2]: 29.7 nM | IC50 [3]: 63.7 nM | IC50 [47]: 46.9 nM | IC50 [42]: 52.5 nM | IC50 [4]: 60.8 nM | IC50 [48]: 45.9 nM | IC50 [49]: 25 nM

Clc1ccc2c(Nc3ccc(Cl)c(CN4CCN(c5ccccn5)CC4)c3)ccnc2c1
IC50 [2]: 27.2 nM | IC50 [3]: 485 nM | IC50 [4]: 500 nM
